Test results from PubChem BioAssay (NCI).
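Compound exposure: 48 hours, 5 concentrations, 96-well plates. Definition used: TGI = concentration required for complete inhibition of growth.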

What was measured:
Assay in all cases: growth of human tumour cells (NCI), 48 h
DU-145 prostate = tested on: DU-145 prostate
MALME-3M melanoma = tested on: MALME-3M melanoma
KM12 colon = tested on: KM12 colon
UACC-257 melanoma = tested on: UACC-257 melanoma
HCT-15 colon = tested on: HCT-15 colon
NCI-H23 lung = tested on: NCI-H23 lung
IGROV1 ovarian = tested on: IGROV1 ovarian
COLO 205 colon = tested on: COLO 205 colon
SF-295 CNS = tested on: SF-295 CNS
MDA-N = tested on: MDA-N
SK-MEL-28 melanoma = tested on: SK-MEL-28 melanoma
OVCAR-4 ovarian = tested on: OVCAR-4 ovarian
SNB-19 CNS = tested on: SNB-19 CNS
SK-OV-3 ovarian = tested on: SK-OV-3 ovarian
HOP-62 NSCLC = tested on: HOP-62 NSCLC
SF-539 CNS = tested on: SF-539 CNS

SMILES | TGI (DU-145 prostate) | TGI (MALME-3M melanoma) | TGI (KM12 colon) | TGI (UACC-257 melanoma) | TGI (HCT-15 colon) | TGI (NCI-H23 lung) | TGI (IGROV1 ovarian) | TGI (COLO 205 colon) | TGI (SF-295 CNS) | TGI (MDA-N) | TGI (SK-MEL-28 melanoma) | TGI (OVCAR-4 ovarian) | TGI (SNB-19 CNS) | TGI (SK-OV-3 ovarian) | TGI (HOP-62 NSCLC) | TGI (SF-539 CNS)
COc1c(Br)cc(/C=C(\C#N)c2cccnc2)cc1Br | > 100 µM | > 100 µM | > 100 µM | > 100 µM | > 100 µM | > 100 µM | > 100 µM | > 100 µM | > 100 µM | > 100 µM | > 100 µM | > 100 µM | > 100 µM | > 100 µM | > 100 µM | > 100 µM
Nc1ccc(CCSSCCc2ccc(N)cc2)cc1 | > 87.4 µM | 41.6 µM | > 100 µM | 51.7 µM | > 67.9 µM | > 72.6 µM | > 100 µM | > 100 µM | > 100 µM | > 79.6 µM | > 78.6 µM | > 100 µM | > 100 µM | > 100 µM | > 100 µM | 63.5 µM
Nc1ncnc2c1ncn2C1OC(CO)C(O)C(O)C1O (configuration not stated) | > 100 µM | > 100 µM | > 100 µM | > 100 µM | > 100 µM | > 100 µM | > 100 µM | > 100 µM | > 100 µM | > 100 µM | > 100 µM | > 100 µM | > 100 µM |  | > 100 µM | > 100 µM
Cn1c(Cl)cn2c3nc4ccccc4nc3c(=O)c(C#N)c12 | > 100 µM | > 100 µM | > 100 µM | > 100 µM | > 100 µM | > 100 µM | > 100 µM | > 100 µM | > 100 µM | > 100 µM | > 100 µM | > 100 µM | > 100 µM | > 100 µM |  | > 100 µM
Cc1ccc(N(C(=O)Nc2ccc(F)c(Cl)c2)C2=NCC(C)S2)cc1 (configuration not stated) | > 100 µM | > 100 µM | > 100 µM | > 100 µM | > 100 µM | > 100 µM | > 100 µM | > 100 µM | > 100 µM | > 100 µM | > 100 µM | > 100 µM | > 100 µM | > 100 µM | > 100 µM | > 100 µM
COC(=O)[C@@H](NC(=O)N(CCC#N)CCCN(C(=O)N[C@H](Cc1ccccc1)C(=O)OC)c1ccccc1)C(C)C | > 100 µM | 92.7 µM | > 100 µM | > 100 µM | > 100 µM | > 100 µM | > 100 µM | > 100 µM | > 100 µM | > 100 µM | > 100 µM | > 100 µM | > 100 µM | > 100 µM | > 100 µM | > 100 µM
Oc1cc(-c2ccc(Cl)cc2)cn2c1nc1ccccc12 | > 100 µM | > 100 µM | > 100 µM | > 100 µM | > 100 µM | > 100 µM | > 100 µM | > 100 µM | > 100 µM | > 100 µM | > 100 µM | > 100 µM | > 100 µM | > 100 µM | > 100 µM | > 100 µM
Cc1ccc2c(c1)CC1(Cc3c(C)cccc3C1=O)C2=O (configuration not stated) | > 100 µM | > 100 µM | > 100 µM | > 100 µM | > 100 µM | > 100 µM | > 100 µM | > 100 µM | > 100 µM | > 100 µM | > 100 µM | > 100 µM | > 100 µM | > 100 µM | 71.9 µM | > 100 µM
CN1C(=O)C(c2c[nH]c3ccccc23)N(C)C(=O)C1c1c[nH]c2ccccc12 (configuration not stated) | > 100 µM | > 100 µM | > 100 µM | > 100 µM | > 100 µM | > 100 µM | > 100 µM | > 100 µM | > 100 µM | > 100 µM | > 100 µM | > 100 µM |  | > 100 µM | > 100 µM | > 100 µM
NC(=O)C1Cc2cc3c(cc21)OCO3 (configuration not stated) | > 100 µM | > 100 µM | > 100 µM | > 100 µM | > 100 µM | > 100 µM | > 100 µM | > 100 µM | > 100 µM | > 100 µM |  |  | > 100 µM | > 100 µM | > 100 µM | > 100 µM
CN(N)/N=N/c1nc[nH]c1[N+](=O)[O-] | > 100 µM | > 100 µM | > 100 µM | > 100 µM | > 100 µM | > 100 µM | > 100 µM | > 100 µM | > 100 µM | > 100 µM | > 100 µM | > 100 µM |  | > 100 µM | > 100 µM | > 100 µM
COC(=O)C1(C(=O)OC)Cc2ccc(C)cc2C2=C1C(=O)c1ccccc1C2=O | 36.9 µM | 87.5 µM | 59.6 µM | 31.2 µM | 30.1 µM | 46.1 µM | 44.3 µM |  | 36.1 µM | 32 µM | 32.5 µM | 23.7 µM | > 100 µM |  | 29 µM | 61.8 µM
COc1ccc(NC(=O)/C(=N/NC(N)=S)C2C(=O)NC(=S)NC2=O)c(OC)c1 | > 100 µM | > 100 µM | > 100 µM | > 100 µM | > 100 µM | > 100 µM | > 100 µM | > 100 µM | > 100 µM | > 100 µM | > 100 µM | > 100 µM | > 100 µM | > 100 µM |  | > 100 µM
CC(C)(C)OC(=O)NC(CCC(=O)OCc1ccccc1)C(=O)NCCCO (configuration not stated) | > 100 µM | > 100 µM | > 100 µM | > 100 µM | > 100 µM | > 100 µM | > 100 µM |  |  | > 100 µM | > 100 µM | > 100 µM | > 100 µM | > 100 µM | > 100 µM | > 100 µM
O=[N+]([O-])c1cc2c(c([N+](=O)[O-])c1)NCc1ccccc1O2 | > 100 µM | > 100 µM | > 100 µM | > 100 µM | > 100 µM | > 100 µM | > 100 µM | > 100 µM | > 100 µM | > 100 µM | > 100 µM | > 100 µM |  |  | > 100 µM | > 100 µM
